The IC50 is the point on the concentration scale where inhibition reaches its midpoint. The EC50 is the concentration giving half of the maximal effect.

In one assay the target is Pim3 kinase (Homo sapiens, UniProt Q86V86). In words: Pim3 ATP depletion assay. The class given is biochemical. The following applies: read-out: IC50 (μM) PIM3.
The target in assay [1] is T1, human full length PKCE enzyme (Homo sapiens, UniProt Q02156).
T1 construct: human full length PKCE enzyme purchased from InVitrogen; purchased InVitrogen
T1 sequence (Q02156 1-737): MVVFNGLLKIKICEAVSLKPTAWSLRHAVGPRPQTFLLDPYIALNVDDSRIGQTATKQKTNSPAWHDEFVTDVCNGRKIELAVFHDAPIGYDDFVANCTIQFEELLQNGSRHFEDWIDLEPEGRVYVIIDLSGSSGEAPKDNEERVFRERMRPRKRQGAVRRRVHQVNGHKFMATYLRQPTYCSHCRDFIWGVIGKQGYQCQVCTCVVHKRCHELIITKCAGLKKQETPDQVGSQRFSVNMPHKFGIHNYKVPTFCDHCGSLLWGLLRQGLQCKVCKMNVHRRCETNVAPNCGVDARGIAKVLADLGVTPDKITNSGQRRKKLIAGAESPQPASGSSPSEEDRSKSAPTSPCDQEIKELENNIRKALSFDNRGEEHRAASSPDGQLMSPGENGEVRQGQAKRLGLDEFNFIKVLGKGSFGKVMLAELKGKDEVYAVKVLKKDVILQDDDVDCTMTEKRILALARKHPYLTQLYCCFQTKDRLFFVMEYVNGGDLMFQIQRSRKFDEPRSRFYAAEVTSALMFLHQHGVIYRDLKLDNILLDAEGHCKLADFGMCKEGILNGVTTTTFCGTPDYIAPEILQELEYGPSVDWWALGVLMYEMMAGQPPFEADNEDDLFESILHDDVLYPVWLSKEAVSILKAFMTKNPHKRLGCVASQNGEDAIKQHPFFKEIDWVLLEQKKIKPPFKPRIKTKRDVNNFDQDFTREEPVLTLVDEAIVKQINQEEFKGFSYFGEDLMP
The assay can be described thus: In vitro PKCE assay. The class given is biochemical. The following applies: 10 nM enzyme, 40 uM peptide substrate, 20 uM ATP, KinaseGlo Plus readout; read-out: PKCε IC50. (In general: In Kinase-Glo more light means more ATP remaining.)

For another assay, the system named is PC3 cells. In words: Cell proliferation assay (CellTiter-Glo), PC3. It is filed as cell-based. The note with it: Homo sapiens, PC-3. The protocol: HEL 92.1.7 cells (ATTC No. TIB-180, an erythroleukemia line derived from malignant peripheral blood), MV4-11 cells (ATCC No. CRL-9591, a human acute monocytic leukemia line) and PC3 cells (ATCC No. CRL-1435, a human prostatic adenocarcinoma line) were cultured in RPMI1640 supplemented with 10% FBS, sodium pyruvate and antibiotics. Cells were plated in the same medium at a density of 1000 cells per well into 96 well tissue culture plates, with outside wells vacant, on the day of assay.
Test compounds supplied in DMSO were diluted into DMSO at 500 times the desired final concentrations before dilution into culture media to 2 times final concentrations. Equal volumes of 2× compounds were added to the cells in 96 well plates and incubated at 37° C. for 3 days.
After 3 days plates were equilibrated to room temperature and equal volume of CellTiter-Glow Reagent (Promega) was added to the culture wells. The plates were agitated briefly and luminescent signal was measured with luminometer. The percent inhibition of the signal seen in cells treated with DMSO alone vs. cells treated with control compound was calculated and used to determine EC50 values (i.e., the concentration of a test compound that is required to obtain 50% of the maximum effect in the cells) for tested compounds, as shown in Example 763.
(In general: ATP-based viability assays read luminescence as a measure of living cells.)

Another assay has as its target Pim1 kinase (Homo sapiens, UniProt P11309). The assay can be described thus: Pim1 ATP depletion assay.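 Note: Luciferase-luciferin luminescence readout of residual ATP after PIM1 transfers phosphate to a peptide substrate, 40 µM ATP added, reaction run to roughly half ATP consumption.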 The class given is biochemical. The following applies: Pim1 ATP depletion assay; read-out: IC50 (μM) PIM1.
In another assay the target is Pim2 kinase (Homo sapiens, UniProt Q9P1W9). The assay can be described thus: Pim2 ATP depletion assay.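 Note: Luciferase-based luminescent readout of ATP remaining after PIM2 phosphorylates a BAD peptide, final 5 nM enzyme, 4 µM ATP, 10 µM peptide, 2.5% DMSO, run to roughly half ATP consumption.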 The following applies: read-out: IC50 (μM) PIM2. The class given is biochemical.
Pim2 kinase, sequence (Q9P1W9 whole entry): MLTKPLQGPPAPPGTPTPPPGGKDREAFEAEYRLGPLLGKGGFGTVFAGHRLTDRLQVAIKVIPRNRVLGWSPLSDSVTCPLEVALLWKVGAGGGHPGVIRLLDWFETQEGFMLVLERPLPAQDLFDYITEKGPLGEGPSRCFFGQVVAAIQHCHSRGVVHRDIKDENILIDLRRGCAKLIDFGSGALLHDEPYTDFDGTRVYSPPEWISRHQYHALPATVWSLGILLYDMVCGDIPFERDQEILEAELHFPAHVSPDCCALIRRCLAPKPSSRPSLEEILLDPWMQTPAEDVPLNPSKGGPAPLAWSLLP
For a further assay, the target named is KDR kinase (Homo sapiens, UniProt P35968). In words: KDR AlphaScreen assay. The following applies: KDR IC50 (μM).
KDR kinase, sequence (P35968 20-1356): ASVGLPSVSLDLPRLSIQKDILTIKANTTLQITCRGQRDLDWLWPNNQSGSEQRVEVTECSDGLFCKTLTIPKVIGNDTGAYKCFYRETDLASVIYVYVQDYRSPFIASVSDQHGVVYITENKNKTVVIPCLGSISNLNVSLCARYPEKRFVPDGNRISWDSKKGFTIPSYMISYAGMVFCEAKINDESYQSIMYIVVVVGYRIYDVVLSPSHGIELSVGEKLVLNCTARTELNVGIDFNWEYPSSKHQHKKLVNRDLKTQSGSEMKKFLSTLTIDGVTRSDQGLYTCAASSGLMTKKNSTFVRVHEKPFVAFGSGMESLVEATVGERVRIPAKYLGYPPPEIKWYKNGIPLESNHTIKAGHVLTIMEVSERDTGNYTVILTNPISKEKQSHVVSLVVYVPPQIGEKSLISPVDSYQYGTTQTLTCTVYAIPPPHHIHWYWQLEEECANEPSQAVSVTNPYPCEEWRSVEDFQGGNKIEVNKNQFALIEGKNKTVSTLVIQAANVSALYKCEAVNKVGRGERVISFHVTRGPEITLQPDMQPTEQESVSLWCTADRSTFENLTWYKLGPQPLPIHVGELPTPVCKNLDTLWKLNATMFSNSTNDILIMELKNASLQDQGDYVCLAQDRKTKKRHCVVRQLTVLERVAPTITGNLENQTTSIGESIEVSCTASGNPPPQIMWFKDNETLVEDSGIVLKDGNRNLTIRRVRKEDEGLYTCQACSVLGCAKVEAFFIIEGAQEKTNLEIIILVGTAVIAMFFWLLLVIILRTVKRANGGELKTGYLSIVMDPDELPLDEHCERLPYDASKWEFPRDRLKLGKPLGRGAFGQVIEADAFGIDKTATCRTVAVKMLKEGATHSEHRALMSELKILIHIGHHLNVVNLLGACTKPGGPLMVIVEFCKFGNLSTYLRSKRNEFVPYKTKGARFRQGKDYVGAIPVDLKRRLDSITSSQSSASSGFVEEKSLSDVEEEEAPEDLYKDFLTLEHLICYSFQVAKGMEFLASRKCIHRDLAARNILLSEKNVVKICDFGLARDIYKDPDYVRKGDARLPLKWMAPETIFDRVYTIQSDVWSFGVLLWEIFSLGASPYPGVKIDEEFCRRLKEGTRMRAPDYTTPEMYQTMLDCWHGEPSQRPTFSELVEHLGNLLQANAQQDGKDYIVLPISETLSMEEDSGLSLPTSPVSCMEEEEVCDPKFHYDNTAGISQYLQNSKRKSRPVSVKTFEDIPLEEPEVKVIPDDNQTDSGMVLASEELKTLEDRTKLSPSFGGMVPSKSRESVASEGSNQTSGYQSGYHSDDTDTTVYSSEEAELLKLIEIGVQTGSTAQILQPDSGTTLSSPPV
The next assay relates to HEL 92.1.7 cells. In words: Cell proliferation assay (CellTiter-Glo), HEL 92.1.7. The class given is cell-based. The note with it: Homo sapiens, read-out: EC50 (μM) HEL 92.1.7. Summed up: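 CellTiter-Glo luminescence was read after 3-day compound exposure at 37 °C of cells plated at 1000/well in RPMI1640 with 10% FBS. Signal was normalised between DMSO-treated and control-compound-treated wells. EC50 is the concentration giving 50% of maximal effect.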

Each structure is given as a SMILES string.

Pim1 kinase, sequence (P11309 whole entry): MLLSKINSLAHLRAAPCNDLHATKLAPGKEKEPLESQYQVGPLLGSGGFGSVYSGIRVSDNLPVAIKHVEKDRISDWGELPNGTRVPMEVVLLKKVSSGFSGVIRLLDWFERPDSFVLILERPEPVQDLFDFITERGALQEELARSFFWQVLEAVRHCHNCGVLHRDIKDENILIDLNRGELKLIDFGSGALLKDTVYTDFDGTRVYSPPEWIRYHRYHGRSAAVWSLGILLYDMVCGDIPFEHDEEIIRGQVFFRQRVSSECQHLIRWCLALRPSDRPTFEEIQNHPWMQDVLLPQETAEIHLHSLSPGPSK

`Nc1nccnc1C(=O)Nc1ccncc1N1CCCC(N)C1` (stereo not drawn) [Example 173, 3-amino-N-[3-(3-aminopiperidin-1-yl)pyridin-4-yl]pyrazine-2-carboxamide]: the IC50 at Pim3 kinase was under 1 µM; in assay [1], under 1000 nM; at Pim1 kinase, under 1 µM; on Pim2 kinase it was under 1 µM; against KDR kinase, 10 to 25 µM. The EC50 in the assay with PC3 cells was 5 to 10 µM; with HEL 92.1.7 cells, 1 to 5 µM.

For `Nc1nccnc1C(=O)Nc1cnccc1N1CCC[C@H](N)C1` [Example 176], the IC50 is under 1 µM on Pim3 kinase, under 1000 nM in assay [1], under 1 µM on Pim2 kinase and 1 to 10 µM against KDR kinase. The EC50 in the assay with PC3 cells and with HEL 92.1.7 cells was 1 to 5 µM each time.

As to `CCOc1ccc(Cl)c(-c2ccc(N)c(C(=O)Nc3cnccc3N3CCC[C@H](N)C3)n2)c1` [Example 322, 3-amino-6-(2-chloro-5-ethoxy-phenyl)-pyridine-2-carboxylic acid ((S)-3-amino-3,4,5,6-tetrahydro-2H-[1,4′]bi-pyridinyl-3′-yl)-amide], the IC50 on Pim3 kinase was under 1 µM; in assay [1], 1000 to 10000 nM; at Pim1 kinase, under 1 µM; on Pim2 kinase, under 1 µM; against KDR kinase, over 25 µM. The EC50 was 5 to 10 µM in the assay with PC3 cells and under 1 µM in the assay with HEL 92.1.7 cells.

Consider `Nc1ccc(-c2cc(C(=O)Nc3ccccc3)ccc2F)nc1C(=O)Nc1cnccc1N1CCC[C@H](N)C1` [Example 323, 3-amino-6-(2-fluoro-5-phenylcarbamoyl-phenyl)-pyridine-2-carboxylic acid ((S)-3-amino-3,4,5,6-tetra-hydro-2H-[1,4′]bipyridinyl-3′-yl)-amide], for which the IC50 on Pim3 kinase, at Pim1 kinase and at Pim2 kinase was under 1 µM each time. For the same molecule, the EC50 in the assay with PC3 cells is 1 to 5 µM; in the assay on HEL 92.1.7 cells it was under 1 µM.

On to `N#Cc1ccccc1-c1cnc(N)c(C(=O)Nc2cnccc2N2CCCC(N)C2)n1` (stereo not drawn) [Example 345, 3-amino-6-(2-cyano-phenyl)-pyrazine-2-carboxylic acid (3-amino-3,4,5,6-tetrahydro-2H-[1,4′]bipyridinyl-3′-yl)-amide], for which the IC50 was under 1 µM on Pim3 kinase; under 1000 nM in assay [1]; under 1 µM on Pim1 kinase; under 1 µM on Pim2 kinase; under 1 µM against KDR kinase. Further, the EC50 in the assay on PC3 cells and with HEL 92.1.7 cells was under 1 µM in each case.

Take `Nc1ncc(-c2ccccc2C(F)(F)F)nc1C(=O)Nc1cnccc1N1CCCC(N)C1` (stereo not drawn) [Example 348, 3-amino-6-(2-trifluoromethyl-phenyl)-pyrazine-2-carboxylic acid (3-amino-3,4,5,6-tetra-hydro-2H-[1,4′]bipyridinyl-3′-yl)-amide]: the IC50 on Pim3 kinase was under 1 µM; in assay [1] it was under 1000 nM; on Pim1 kinase, under 1 µM. Further, the EC50 in the assay with PC3 cells is 1 to 5 µM; with HEL 92.1.7 cells, under 1 µM.

Regarding `COc1ccc(-c2cnc(N)c(C(=O)Nc3cnccc3N3CCNCC3)n2)cc1` [Example 362, 3-amino-6-(4-methoxy-phenyl)-pyrazine-2-carboxylic acid (4-piperazin-1-yl-pyridin-3-yl)-amide], the IC50 at Pim3 kinase was under 1 µM; in assay [1], under 1000 nM; at Pim1 kinase, under 1 µM; on Pim2 kinase, under 1 µM; at KDR kinase it was under 1 µM. This molecule also showed an EC50 in the assay with PC3 cells of under 1 µM.

For the molecule `Nc1ncc(-c2ccccc2Oc2ccccc2)nc1C(=O)Nc1cnccc1N1CCC(N)CC1` [Example 365, 3-amino-6-(2-phenoxy-phenyl)-pyrazine-2-carboxylic acid (4-amino-3,4,5,6-tetra-hydro-2H-[1,4′]bipyridinyl-3′-yl)-amide], the IC50 on Pim3 kinase is under 1 µM; in assay [1], under 1000 nM; at Pim1 kinase, under 1 µM; at Pim2 kinase it was 1 to 10 µM; at KDR kinase it was under 1 µM. The molecule further returned an EC50 in the assay with PC3 cells of over 10 µM.

With `COc1ccc(-c2cnc(N)c(C(=O)Nc3cnccc3N3CCCC(N)C3)n2)cc1` (stereo not drawn) [Example 370, 3-amino-6-(4-methoxy-phenyl)-pyrazine-2-carboxylic acid (3-amino-3,4,5,6-tetra-hydro-2H-[1,4′]bipyridinyl-3′-yl)-amide], the IC50 at Pim3 kinase was under 1 µM; in assay [1], under 1000 nM; at Pim1 kinase, under 1 µM; at Pim2 kinase, under 1 µM; on KDR kinase, under 1 µM. The EC50 with PC3 cells fell in the range of 5 to 10 µM.

Regarding `Nc1ncc(-c2ccccc2)nc1C(=O)Nc1ccccc1N1CCCC(N)C1` (stereo not drawn) [Example 372, 3-amino-6-phenyl-pyrazine-2-carboxylic acid [2-(3-amino-piperidin-1-yl)-phenyl]-amide], the half-maximal inhibitory concentration (IC50) at Pim3 kinase is under 1 µM; in assay [1], under 1000 nM; on Pim1 kinase it was under 1 µM; at Pim2 kinase it was under 1 µM; at KDR kinase it was under 1 µM. The molecule also displayed an EC50 with PC3 cells of 1 to 5 µM.

As to `Cc1cnc(N)c(C(=O)Nc2ccccc2N2CCCC(N)C2)n1` (stereo not drawn) [Example 376, 3-amino-6-methyl-pyrazine-2-carboxylic acid [2-(3-amino-piperidin-1-yl)-phenyl]-amide], the IC50 was under 1 µM on Pim3 kinase; under 1000 nM in assay [1]; under 1 µM at Pim1 kinase; under 1 µM on Pim2 kinase; over 25 µM at KDR kinase. In addition, in the assay on PC3 cells, the EC50 is over 10 µM.

Take `Cc1cnc(N)c(C(=O)Nc2ccccc2N2CCC(N)CC2)n1` [Example 378, 3-amino-N-[2-(4-amino-piperidin-1-yl)phenyl]-6-methylpyrazine-2-carboxamide]: the IC50 at Pim3 kinase was 1 to 10 µM; in assay [1], under 1000 nM; on Pim1 kinase, under 1 µM; at Pim2 kinase, 10 to 25 µM; at KDR kinase, over 25 µM. The same molecule had an EC50 with PC3 cells of 1 to 5 µM.

Consider `Nc1ncc(-c2ccccc2)nc1C(=O)Nc1ccccc1N1CCNCC1` [Example 382, 3-amino-6-phenyl-pyrazine-2-carboxylic acid (2-piperazin-1-yl-phenyl)-amide], for which the IC50 was under 1 µM on Pim3 kinase; under 1000 nM in assay [1]; under 1 µM on Pim1 kinase; 1 to 10 µM at Pim2 kinase; 1 to 10 µM on KDR kinase. The EC50 with PC3 cells fell in the range of 1 to 5 µM.

As to `Nc1ncc(-c2cccc3ccccc23)nc1C(=O)Nc1ccccc1N1CCNCC1` [Example 389, 3-amino-6-naphthalen-1-yl-pyrazine-2-carboxylic acid (2-piperazin-1-yl-phenyl)-amide], the IC50 on Pim3 kinase was 1 to 10 µM; in assay [1], under 1000 nM; on Pim1 kinase, under 1 µM; on Pim2 kinase it was 1 to 10 µM; against KDR kinase, 1 to 10 µM. Also, in the assay with PC3 cells, the EC50 was in the range of 1 to 5 µM.

In the case of `COc1ccncc1-c1ccc(N)c(C(=O)Nc2cnccc2N2CCC[C@H](N)C2)n1` [Example 421, 5-amino-4′-methoxy-[2,3′]bi-pyridinyl-6-carboxylic acid ((S)-3-amino-3,4,5,6-tetrahydro-2H-[1,4′]bipyridinyl-3′-yl)-amide], the IC50 at Pim3 kinase, on Pim1 kinase and on Pim2 kinase was under 1 µM throughout. For the same molecule, the EC50 in the assay with PC3 cells was over 10 µM; in the assay on HEL 92.1.7 cells, 1 to 5 µM.

The record behind these values is patent US20140249135A1, “PIM KINASE INHIBITORS AND METHODS OF THEIR USE” (NOVARTIS AG, priority 2007, published 2014).
